# Key:
# Assay type in all cases: cell-based
# [1] = target: human EGFR E746-A750 deletion and T790M Mutation (DT) (Homo sapiens (Human), UniProt P00533, DEL746-750/T790M); assay: Ba/F3-EGFR-Del/T790M cell anti-proliferative assay (CellTiter 96 MTS, 72 h); settings: Ba/F3-EGFR-Del/T790M cells; for IC50: read-out: EGFR exon 19 deletion and T790M mutation IC50
# Protocol: An expression vector, pLVX-IRES puro (Clontech) coding for human EGFR E746-A750 deletion and T790M Mutation, was transfected into HEK293 cells by the Trans-Lentiviral ORF Packaging System (Thermo Scientific), to produce virus encoding EGFR exon 19 deletion and T790M mutations. […] Ba/F3 cells expressing EGFR E746-A750 deletion and T790M Mutation (named Ba/F3-EGFR-Del/T790M) can proliferate in the absence of IL-3. The anti-proliferative activity of compounds was determined as follows: BaF3-EGFR-Del/T790M cells seeded in 96 well plates (2500 cells/well) were treated with test compound (dissolved in DMSO) at a series of concentrations (4-fold dilution, top concentration: 10,000 nM). The plates were incubated for 72 h in a 37° C. incubator with 5% CO2, and the number of viable cells in each well were measured indirectly by CellTiter 96® Aqueous One Solution Cell Proliferation Assay (Promega; this assay is a colorimetric method for determining the number of viable cells through measurement of their metabolic activity by detection of enzymatic conversion of tetrazolium salts into blue formazan derivatives). Reagent (20 μL) was added into each well, and the plates were returned to the incubator for 2 h. The absorbance in each well was then measured at 490 nm using an Envision plate reader (Perkin Elmer).
# [2] = target: Her2 exon 20 YVMA insertion (A775_G776ins YVMA) (Homo sapiens (Human), UniProt P04626, INS775YVMA); assay: Ba/F3-Her2 Exon20 YVMA cell anti-proliferative assay (CellTiter 96 MTS, 72 h); settings: Ba/F3-Her2 Exon20 YVMA cells
# Text: Ba/F3 cells expressing Her2 Exon20 YVMA insertions (named Ba/F3-Her2 Exon20 YVMA) can proliferate in the absence of IL-3.
# [3] = target: human EGFR exon 20 insertion ASV (V769_D770insASV) (Homo sapiens (Human), UniProt P00533, INS769ASV); assay: Ba/F3-EGFR-Exon20-ASV cell anti-proliferative assay (CellTiter 96 MTS, 72 h); settings: Ba/F3-EGFR-Exon20-ASV cells;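 note: Ba/F3 cells bearing the EGFR exon 20 ASV insertion, a line able to proliferate without IL-3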
# Protocol: (§1) Ba/F3 cells expressing EGFR exon 20 insertions (named Ba/F3-EGFR-Exon20-NPG or Ba/F3-EGFR-Exon20-ASV) can proliferate in the absence of IL-3. The anti-proliferative activity of compounds were determined as follows: BaF3-EGFR-Exon20 cells (NPG or ASV) seeded in 96 well plates (2500 cells/well) were treated with test compound (dissolved in DMSO) at a series of concentrations (4-fold dilution, top concentration: 10,000 nM). The plates were incubated for 72 h in a 37° C. incubator with 5% CO2, and the number of viable cells in each well were measured indirectly by CellTiter 96® Aqueous One Solution Cell Proliferation Assay (Promega) This assay is a colorimetric method for determining the number of viable cells through measurement of their metabolic activity by detection of enzymatic conversion of tetrazolium salts into blue formazan derivatives. Reagent (20 μL) was added into each well, and the plates were returned to the incubator for 2 h. The absorbance in each well was then measured at 490 nm using an Envision plate reader (Perkin Elmer).
# [4] = target: human EGFR L858R and T790M double mutation (LT) (Homo sapiens (Human), UniProt P00533, L858R/T790M); assay: Ba/F3-EGFR L858R/T790M cell anti-proliferative assay (CellTiter 96 MTS, 72 h); settings: Ba/F3-EGFR L858R/T790M cells; for IC50: read-out: EGFR exon 21 L858R and T790M mutation IC50;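 for all read-outs here: Ba/F3 cells carrying the EGFR L858R/T790M double mutant are able to grow without IL-3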
# Protocol: An expression vector, pLVX-IRES puro (Clontech) coding for human EGFR L858R and T790M double mutation, was transfected into HEK293 cells by the Trans-Lentiviral ORF Packaging System (Thermo Scientific), to produce virus encoding EGFR L858R and T790M double mutations. […] Ba/F3 cells expressing EGFR L858R and T790M double mutation (named Ba/F3-EGFR L858R/T790M) can proliferate in the absence of IL-3. The anti-proliferative activity of compounds was determined as follows: BaF3-EGFR L858R/T790M cells seeded in 96 well plates (2500 cells/well) were treated with test compound (dissolved in DMSO) at a series of concentrations (4-fold dilution, top concentration: 10,000 nM). The plates were incubated for 72 h in a 37° C. incubator with 5% CO2, and the number of viable cells in each well were measured indirectly by CellTiter 96® Aqueous One Solution Cell Proliferation Assay (Promega; this assay is a colorimetric method for determining the number of viable cells through measurement of their metabolic activity by detection of enzymatic conversion of tetrazolium salts into blue formazan derivatives). Reagent (20 μL) was added into each well, and the plates were returned to the incubator for 2 h. The absorbance in each well was then measured at 490 nm using an Envision plate reader (Perkin Elmer).
# [5] = target: human EGFR exon 20 insertion NPG (H773_V774insNPG) (Homo sapiens, UniProt P00533, INS773NPG, cells depend on it); assay: Ba/F3-EGFR-Exon20-NPG cell anti-proliferative assay (CellTiter 96 MTS, 72 h); settings: read-out: EGFR exon 20 NPG insertion IC50
# Sequence of human EGFR exon 20 insertion NPG (H773_V774insNPG) (P00533 with tags, fused parts or gaps INS773NPG limits assumed): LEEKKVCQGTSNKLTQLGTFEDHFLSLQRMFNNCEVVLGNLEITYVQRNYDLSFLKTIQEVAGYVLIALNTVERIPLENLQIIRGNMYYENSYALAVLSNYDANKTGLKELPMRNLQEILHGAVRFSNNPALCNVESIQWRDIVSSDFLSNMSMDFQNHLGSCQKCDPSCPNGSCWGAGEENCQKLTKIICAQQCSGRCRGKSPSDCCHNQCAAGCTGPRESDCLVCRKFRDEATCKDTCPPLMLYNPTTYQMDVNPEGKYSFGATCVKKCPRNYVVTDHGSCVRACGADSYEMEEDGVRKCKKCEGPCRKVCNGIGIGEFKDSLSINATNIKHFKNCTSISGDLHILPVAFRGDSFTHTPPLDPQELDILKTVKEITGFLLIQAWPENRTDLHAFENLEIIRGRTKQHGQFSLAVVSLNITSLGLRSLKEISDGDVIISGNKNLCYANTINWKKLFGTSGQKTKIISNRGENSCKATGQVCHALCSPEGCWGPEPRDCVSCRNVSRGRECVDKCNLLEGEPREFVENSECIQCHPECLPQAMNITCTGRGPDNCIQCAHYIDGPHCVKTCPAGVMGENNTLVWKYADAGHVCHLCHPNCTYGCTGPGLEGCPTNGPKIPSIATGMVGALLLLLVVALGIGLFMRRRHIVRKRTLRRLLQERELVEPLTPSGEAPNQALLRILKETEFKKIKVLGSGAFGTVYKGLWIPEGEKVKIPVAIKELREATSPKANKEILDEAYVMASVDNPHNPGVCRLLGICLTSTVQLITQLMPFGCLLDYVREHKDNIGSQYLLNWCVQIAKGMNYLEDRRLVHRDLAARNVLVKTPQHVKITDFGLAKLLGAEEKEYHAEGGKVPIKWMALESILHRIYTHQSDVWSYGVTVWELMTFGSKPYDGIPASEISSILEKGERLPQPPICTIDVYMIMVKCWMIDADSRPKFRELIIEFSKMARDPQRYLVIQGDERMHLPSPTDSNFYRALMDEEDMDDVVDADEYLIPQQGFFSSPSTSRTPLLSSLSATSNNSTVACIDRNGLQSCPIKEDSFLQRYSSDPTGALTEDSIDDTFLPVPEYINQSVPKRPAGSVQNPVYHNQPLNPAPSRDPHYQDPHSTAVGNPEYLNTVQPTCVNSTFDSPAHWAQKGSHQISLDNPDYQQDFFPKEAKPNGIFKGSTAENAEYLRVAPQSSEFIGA
# Protocol: as §1
# Sequence of human EGFR exon 20 insertion ASV (V769_D770insASV) (P00533 other isoform, or with tags, fused parts or gaps ins ASV behind 769): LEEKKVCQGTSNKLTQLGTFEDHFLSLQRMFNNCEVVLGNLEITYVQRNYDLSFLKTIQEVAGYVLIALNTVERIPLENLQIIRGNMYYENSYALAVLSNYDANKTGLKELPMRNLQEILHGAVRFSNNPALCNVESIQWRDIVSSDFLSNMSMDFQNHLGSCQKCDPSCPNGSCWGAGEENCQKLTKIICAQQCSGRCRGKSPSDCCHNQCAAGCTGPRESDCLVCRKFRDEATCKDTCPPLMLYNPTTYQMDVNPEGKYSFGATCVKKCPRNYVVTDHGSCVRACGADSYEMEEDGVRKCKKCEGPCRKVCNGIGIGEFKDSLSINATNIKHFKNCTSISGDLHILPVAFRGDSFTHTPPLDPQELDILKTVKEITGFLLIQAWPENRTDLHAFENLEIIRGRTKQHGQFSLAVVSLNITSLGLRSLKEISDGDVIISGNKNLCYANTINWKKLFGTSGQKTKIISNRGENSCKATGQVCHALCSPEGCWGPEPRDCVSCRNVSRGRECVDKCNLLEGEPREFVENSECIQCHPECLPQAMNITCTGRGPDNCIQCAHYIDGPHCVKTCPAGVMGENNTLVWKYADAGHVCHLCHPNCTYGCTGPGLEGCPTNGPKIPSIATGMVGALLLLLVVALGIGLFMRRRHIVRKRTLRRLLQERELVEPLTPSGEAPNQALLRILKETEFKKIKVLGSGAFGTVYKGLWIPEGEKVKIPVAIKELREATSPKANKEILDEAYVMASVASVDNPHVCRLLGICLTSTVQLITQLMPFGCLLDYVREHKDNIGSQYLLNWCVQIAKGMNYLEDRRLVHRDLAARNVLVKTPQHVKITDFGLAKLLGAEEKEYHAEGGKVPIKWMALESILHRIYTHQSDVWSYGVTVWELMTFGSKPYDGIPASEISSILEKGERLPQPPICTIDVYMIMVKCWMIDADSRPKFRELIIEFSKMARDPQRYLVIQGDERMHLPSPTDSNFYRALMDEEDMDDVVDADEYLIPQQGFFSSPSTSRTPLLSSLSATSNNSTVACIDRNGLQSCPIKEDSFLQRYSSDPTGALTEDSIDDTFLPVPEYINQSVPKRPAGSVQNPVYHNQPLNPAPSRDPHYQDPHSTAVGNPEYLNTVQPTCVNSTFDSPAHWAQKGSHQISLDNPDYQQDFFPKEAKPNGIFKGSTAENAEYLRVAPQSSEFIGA
# Sequence of human EGFR L858R and T790M double mutation (LT) (P00533 25-1210 T790M/L858R): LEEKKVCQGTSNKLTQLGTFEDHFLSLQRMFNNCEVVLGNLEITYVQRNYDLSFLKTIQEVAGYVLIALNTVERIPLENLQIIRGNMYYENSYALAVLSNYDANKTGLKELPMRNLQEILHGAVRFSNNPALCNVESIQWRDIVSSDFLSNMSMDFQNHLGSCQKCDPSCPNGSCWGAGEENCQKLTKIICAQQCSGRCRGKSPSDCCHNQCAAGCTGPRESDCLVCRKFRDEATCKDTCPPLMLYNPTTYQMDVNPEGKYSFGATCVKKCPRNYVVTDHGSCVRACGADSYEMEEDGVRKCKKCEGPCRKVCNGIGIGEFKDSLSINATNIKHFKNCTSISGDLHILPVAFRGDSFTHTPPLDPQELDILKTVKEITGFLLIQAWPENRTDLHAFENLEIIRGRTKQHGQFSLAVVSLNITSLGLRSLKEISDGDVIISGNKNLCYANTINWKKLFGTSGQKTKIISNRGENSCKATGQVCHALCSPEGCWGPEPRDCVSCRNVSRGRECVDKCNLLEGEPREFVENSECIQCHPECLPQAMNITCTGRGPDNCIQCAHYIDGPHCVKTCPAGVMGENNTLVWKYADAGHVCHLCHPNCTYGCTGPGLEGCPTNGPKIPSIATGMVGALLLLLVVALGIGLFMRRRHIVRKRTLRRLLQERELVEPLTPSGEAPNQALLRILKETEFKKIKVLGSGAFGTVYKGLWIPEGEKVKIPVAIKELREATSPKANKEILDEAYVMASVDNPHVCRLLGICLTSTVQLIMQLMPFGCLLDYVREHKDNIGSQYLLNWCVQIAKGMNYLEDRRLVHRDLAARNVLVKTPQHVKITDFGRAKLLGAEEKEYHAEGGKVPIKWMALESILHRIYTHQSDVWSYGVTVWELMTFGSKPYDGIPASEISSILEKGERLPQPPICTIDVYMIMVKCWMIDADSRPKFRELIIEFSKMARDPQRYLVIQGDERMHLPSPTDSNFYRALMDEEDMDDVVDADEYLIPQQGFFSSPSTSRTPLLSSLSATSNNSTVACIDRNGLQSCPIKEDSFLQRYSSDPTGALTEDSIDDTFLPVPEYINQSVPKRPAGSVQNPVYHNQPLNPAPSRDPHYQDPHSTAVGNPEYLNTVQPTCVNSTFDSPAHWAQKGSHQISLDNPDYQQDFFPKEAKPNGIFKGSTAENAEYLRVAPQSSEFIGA
# Sequence of human EGFR E746-A750 deletion and T790M Mutation (DT) (P00533 other isoform, or with tags, fused parts or gaps T790M/del E746-A750): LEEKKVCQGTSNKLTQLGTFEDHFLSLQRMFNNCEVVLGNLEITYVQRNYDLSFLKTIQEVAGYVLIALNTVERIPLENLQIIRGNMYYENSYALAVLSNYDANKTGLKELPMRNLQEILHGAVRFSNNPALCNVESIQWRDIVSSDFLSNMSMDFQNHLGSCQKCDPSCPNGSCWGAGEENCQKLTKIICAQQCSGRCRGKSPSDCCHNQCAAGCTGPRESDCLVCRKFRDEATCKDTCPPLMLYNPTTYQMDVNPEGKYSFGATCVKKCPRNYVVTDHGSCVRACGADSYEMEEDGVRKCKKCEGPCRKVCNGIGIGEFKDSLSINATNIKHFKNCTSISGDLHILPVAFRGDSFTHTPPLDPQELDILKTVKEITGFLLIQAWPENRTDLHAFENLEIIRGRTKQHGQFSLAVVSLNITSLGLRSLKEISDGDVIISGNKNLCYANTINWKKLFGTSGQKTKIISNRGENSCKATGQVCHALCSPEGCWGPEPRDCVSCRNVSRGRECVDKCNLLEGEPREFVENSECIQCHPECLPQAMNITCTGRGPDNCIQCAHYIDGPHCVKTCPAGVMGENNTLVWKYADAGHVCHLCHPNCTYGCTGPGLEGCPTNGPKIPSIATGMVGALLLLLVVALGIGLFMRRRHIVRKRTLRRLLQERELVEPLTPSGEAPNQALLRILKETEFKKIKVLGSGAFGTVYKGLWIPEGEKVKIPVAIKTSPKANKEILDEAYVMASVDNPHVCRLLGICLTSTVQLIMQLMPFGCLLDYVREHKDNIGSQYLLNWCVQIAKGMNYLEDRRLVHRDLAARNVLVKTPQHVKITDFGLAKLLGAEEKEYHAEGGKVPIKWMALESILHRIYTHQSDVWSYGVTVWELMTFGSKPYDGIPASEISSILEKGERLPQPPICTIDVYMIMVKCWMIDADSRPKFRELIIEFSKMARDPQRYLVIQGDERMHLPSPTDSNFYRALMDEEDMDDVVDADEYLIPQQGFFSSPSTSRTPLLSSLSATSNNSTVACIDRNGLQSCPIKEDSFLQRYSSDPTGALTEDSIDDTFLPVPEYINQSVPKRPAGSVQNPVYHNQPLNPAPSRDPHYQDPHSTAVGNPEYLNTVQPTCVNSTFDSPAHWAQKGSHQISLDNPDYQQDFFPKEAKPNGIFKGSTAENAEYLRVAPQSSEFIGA
SMILES,EGFR exon 19 deletion and T790M mutation IC50 [1],IC50 [2],IC50 [3],EGFR exon 21 L858R and T790M mutation IC50 [4],IC50 [1],IC50 [4],IC50 [5]
"C=CC(=O)Nc1cc(Nc2ncc(P(C)(C)=O)c(-c3cn(C)c4ccccc34)n2)c(OC)cc1N(C)CCN(C)C [Example 96, N-(2-((2-(dimethylamino)ethyl)(methyl)amino)-5-((5-(dimethylphosphoryl)-4-(1-methyl-1H-indol-3-yl)pyrimidin-2-yl)amino)-4-methoxyphenyl)acrylamide]",B (Group B compounds have an IC50 value for the indicated mutant between about 100 to about 500 nM),> 1000 nM,> 1000 nM,B (Group B compounds have an IC50 value for the indicated mutant between about 100 to about 500 nM),–,–,–
"C=CC(=O)Nc1cc(Nc2nccc(-c3cn(C)c4cc(C#N)ccc34)n2)c(OC)cc1N(C)CCN(C)C [Example 89, N-(5-((4-(6-cyano-1-methyl-1H-indol-3-yl)pyrimidin-2-yl)amino)-2-((2-(dimethylamino)ethyl)(methyl)amino)-4-methoxyphenyl)acrylamide]",–,100 to 500 nM,< 100 nM,–,< 100 nM,< 100 nM,–
"C=CC(=O)Nc1cc(Nc2nccc(-c3cn(C)c4cc(C(=O)OC(C)C)ccc34)n2)c(OC)cc1N(C)CCN(C)C [Example 84, isopropyl 3-(2-((5-acrylamido-4-((2-(dimethylamino)ethyl)(methyl)amino)-2-methoxyphenyl)amino)pyrimidin-4-yl)-1-methyl-1H-indole-6-carboxylate]",–,500 to 1000 nM,500 to 1000 nM,–,< 100 nM,< 100 nM,–
"C=CC(=O)Nc1cc(Nc2ncc(CC)c(-c3cn(CC(=O)NC)c4ccccc34)n2)c(OC)cc1N(C)CCN(C)C [Example 72, N-(2-((2-(dimethylamino)ethyl)(methyl)amino)-5-((5-ethyl-4-(1-(2-(methylamino)-2-oxoethyl)-1H-indol-3-yl)pyrimidin-2-yl)amino)-4-methoxyphenyl)acrylamide]",–,100 to 500 nM,< 100 nM,–,< 100 nM,< 100 nM,–
"C=CC(=O)Nc1cc(Nc2nccc(-c3c(C(=O)N(C)C)n(C)c4ccccc34)n2)c(OC)cc1N(C)CCN(C)C [Example 92, 3-(2-((5-acrylamido-4-((2-(dimethylamino)ethyl)(methyl)amino)-2-methoxyphenyl)amino)pyrimidin-4-yl)-N,N,1-trimethyl-1H-indole-2-carboxamide]",–,100 to 500 nM,< 100 nM,–,< 100 nM,< 100 nM,–
"C=CC(=O)Nc1cc(Nc2ncc(CC)c(-c3cn(CC(N)=O)c4ccccc34)n2)c(OC)cc1N(C)CCN(C)C [Example 71, N-(5-((4-(1-(2-amino-2-oxoethyl)-1H-indol-3-yl)-5-ethylpyrimidin-2-yl)amino)-2-((2-(dimethylamino)ethyl)(methyl)amino)-4-methoxyphenyl)acrylamide]",–,100 to 500 nM,< 100 nM,–,< 100 nM,< 100 nM,–
"C=CC(=O)Nc1cc(Nc2nccc(-c3c(C#N)n(C)c4ccccc34)n2)c(OC)cc1N(C)CCN(C)C [Example 88, N-(5-((4-(2-cyano-1-methyl-1H-indol-3-yl)pyrimidin-2-yl)amino)-2-((2-(dimethylamino)ethyl)(methyl)amino)-4-methoxyphenyl)acrylamide]",–,100 to 500 nM,< 100 nM,–,< 100 nM,< 100 nM,–
"C=CC(=O)Nc1cc(Nc2nccc(-c3cn(C)c4cc(C(=O)OC)ccc34)n2)c(OC)cc1N(C)CCN(C)C [Example 82, methyl 3-(2-((5-acrylamido-4-((2-(dimethylamino)ethyl)(methyl)amino)-2-methoxyphenyl)amino)pyrimidin-4-yl)-1-methyl-1H-indole-6-carboxylate]",–,100 to 500 nM,100 to 500 nM,–,< 100 nM,–,< 100 nM
"C=CC(=O)Nc1cc(Nc2ncc(C(=O)OC(C)C)c(-n3ccc4ccccc43)n2)c(OC)cc1N(C)C[C@H]1CCCN1C [Example 61, isopropyl (R)-2-((5-acrylamido-2-methoxy-4-(methyl((1-methylpyrrolidin-2-yl)methyl)amino)phenyl)amino)-4-(1H-indol-1-yl)pyrimidine-5-carboxylate]",–,100 to 500 nM,< 100 nM,–,< 100 nM,–,< 100 nM
"C=CC(=O)Nc1cc(Nc2ncnc(-c3c(C4=CCOCC4)n(C)c4ccccc34)n2)c(OC)cc1N(C)CCN(C)C [Example 2, N-(5-((4-(2-(3,6-dihydro-2H-pyran-4-yl)-1-methyl-1H-indol-3-yl)-1,3,5-triazin-2-yl)amino)-2-((2-(dimethylamino)ethyl)(methyl)amino)-4-methoxyphenyl)acrylamide]",–,100 to 500 nM,< 100 nM,–,< 100 nM,–,< 100 nM
"C=CC(=O)Nc1cc(Nc2ncc(C(=O)OC(C)C)c(-c3cn(C(C)=O)c4ccccc34)n2)c(OC)cc1N(C)CCN(C)C [Example 78, isopropyl 4-(1-acetyl-1H-indol-3-yl)-2-((5-acrylamido-4-((2-(dimethylamino)ethyl)(methyl)amino)-2-methoxyphenyl)amino)pyrimidine-5-carboxylate]",–,< 100 nM,< 100 nM,–,< 100 nM,–,< 100 nM
"C=CC(=O)Nc1cc(Nc2ncc(NC(=O)CC)c(-c3nn(C)c4ccccc34)n2)c(OC)cc1N(C)CCN(C)C [Example 60, N-(2-((2-(dimethylamino)ethyl)(methyl)amino)-4-methoxy-5-((4-(1-methyl-1H-indazol-3-yl)-5-propionamidopyrimidin-2-yl)amino)phenyl)acrylamide]",–,> 1000 nM,< 100 nM,–,< 100 nM,–,< 100 nM
"C=CC(=O)Nc1cc(Nc2ncc(N(C)C(=O)C(C)C)c(-c3cn(C)c4ccccc34)n2)c(OC)cc1N(C)CCN(C)C [Example 40, N-(2-((2-(dimethylamino)ethyl)-(methyl)-amino)-4-methoxy-5-((4-(1-methyl-1H-indol-3-yl)-5-(N-methylisobutyramido)-pyrimidin-2-yl)amino)phenyl)acrylamide]",C (Group C compounds have an IC50 value for the indicated mutant between greater than about 500 to about 1 μM),> 1000 nM,100 to 500 nM,–,–,–,100 to 500 nM
"C=CC(=O)Nc1cc(Nc2ncc(NC(=O)C(C)(C)C)c(-c3cn(C)c4ccccc34)n2)c(OC)cc1OC [Example 42, N-(2,4-dimethoxy-5-((4-(1-methyl-1H-indol-3-yl)-5-pivalamidopyrimidin-2-yl)amino)phenyl)acrylamide]",–,> 1000 nM,> 1000 nM,–,> 1000 nM,–,> 1000 nM
"C=CC(=O)Nc1cc(Nc2nccc(-c3cn(C)c4cccc(C(=O)OC)c34)n2)c(OC)cc1N(C)CCN(C)C [Example 80, methyl 3-(2-((5-acrylamido-4-((2-(dimethylamino)ethyl)(methyl)amino)-2-methoxyphenyl)amino)pyrimidin-4-yl)-1-methyl-1H-indole-4-carboxylate]",D (Group D compounds have an IC50 value for the indicated mutant greater than about 1 μM),> 1000 nM,> 1000 nM,–,–,–,> 1000 nM

# — patent US10227342B2 (ARIAD PHARMACEUTICALS, INC., priority 2014, dated 2019)
